Experimental data reported in paper PMC6222329 (Molecules : A Journal of Synthetic Chemistry and Natural …, 2018).

Legend:
[1] = molecular target: T1, AChE (Electrophorus electricus) (Electrophorus electricus, UniProt O42275); experiment: AChE inhibition, Ellman's method; type: biochemical
T1 construct: purchased Sigma-Aldrich (Steinheim, Germany)
How it was run: (§1)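 Ellman's colorimetric assay run in two steps, with enzyme in 1% gelatin (2.5 units/mL) and reaction started with DTNB (10 mM) and substrate (75 mM), both stock concentrations.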

AChE (Human) = molecular target: T2, AChE (Human) (Homo sapiens, UniProt P22303); experiment: AChE inhibition, Ellman's method; type: biochemical
T2 construct: purchased Sigma-Aldrich (Steinheim, Germany)
T2 sequence (P22303 32-614): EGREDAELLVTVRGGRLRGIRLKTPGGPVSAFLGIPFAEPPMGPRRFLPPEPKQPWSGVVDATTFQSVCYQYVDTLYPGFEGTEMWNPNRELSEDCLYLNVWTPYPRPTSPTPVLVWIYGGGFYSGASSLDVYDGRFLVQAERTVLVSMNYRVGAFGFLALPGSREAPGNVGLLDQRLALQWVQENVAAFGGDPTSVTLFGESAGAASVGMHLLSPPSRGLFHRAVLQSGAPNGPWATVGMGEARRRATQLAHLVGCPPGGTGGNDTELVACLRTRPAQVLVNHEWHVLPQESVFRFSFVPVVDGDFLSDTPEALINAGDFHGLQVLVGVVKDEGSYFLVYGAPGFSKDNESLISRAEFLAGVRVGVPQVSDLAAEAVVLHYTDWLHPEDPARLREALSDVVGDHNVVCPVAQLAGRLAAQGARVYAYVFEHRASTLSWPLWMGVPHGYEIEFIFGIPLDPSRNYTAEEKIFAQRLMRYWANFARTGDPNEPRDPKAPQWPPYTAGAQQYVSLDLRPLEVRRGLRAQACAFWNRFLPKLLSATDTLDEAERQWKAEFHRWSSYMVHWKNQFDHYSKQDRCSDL
How it was run: as §1

BChE (Equine) = molecular target: T3, BChE (Equine) (Equus caballus, UniProt P81908); experiment: biochemical; type: biochemical
T3 construct: purchased Sigma-Aldrich (Steinheim, Germany)
T3 sequence (P81908 whole entry): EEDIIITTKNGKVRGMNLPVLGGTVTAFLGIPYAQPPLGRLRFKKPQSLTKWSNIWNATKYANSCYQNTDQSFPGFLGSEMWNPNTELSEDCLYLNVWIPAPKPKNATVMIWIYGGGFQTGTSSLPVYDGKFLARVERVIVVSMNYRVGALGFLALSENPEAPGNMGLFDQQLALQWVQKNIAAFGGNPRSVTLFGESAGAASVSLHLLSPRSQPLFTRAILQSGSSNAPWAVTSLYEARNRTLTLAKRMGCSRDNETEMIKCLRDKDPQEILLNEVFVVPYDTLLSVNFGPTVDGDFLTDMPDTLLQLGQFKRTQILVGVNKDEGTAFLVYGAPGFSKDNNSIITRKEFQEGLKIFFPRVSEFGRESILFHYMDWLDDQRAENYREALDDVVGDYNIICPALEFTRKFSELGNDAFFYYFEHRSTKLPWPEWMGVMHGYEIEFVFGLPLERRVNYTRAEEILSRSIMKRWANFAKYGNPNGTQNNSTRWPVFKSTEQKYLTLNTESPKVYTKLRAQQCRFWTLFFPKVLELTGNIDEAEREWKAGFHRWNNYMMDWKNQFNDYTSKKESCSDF
How it was run: as §1

BChE (Human) = molecular target: T4, BChE (Human) (Homo sapiens, UniProt P06276); experiment: BChE inhibition, Ellman's method; type: biochemical
T4 construct: purchased Sigma-Aldrich (Steinheim, Germany)
T4 sequence (P06276 29-602): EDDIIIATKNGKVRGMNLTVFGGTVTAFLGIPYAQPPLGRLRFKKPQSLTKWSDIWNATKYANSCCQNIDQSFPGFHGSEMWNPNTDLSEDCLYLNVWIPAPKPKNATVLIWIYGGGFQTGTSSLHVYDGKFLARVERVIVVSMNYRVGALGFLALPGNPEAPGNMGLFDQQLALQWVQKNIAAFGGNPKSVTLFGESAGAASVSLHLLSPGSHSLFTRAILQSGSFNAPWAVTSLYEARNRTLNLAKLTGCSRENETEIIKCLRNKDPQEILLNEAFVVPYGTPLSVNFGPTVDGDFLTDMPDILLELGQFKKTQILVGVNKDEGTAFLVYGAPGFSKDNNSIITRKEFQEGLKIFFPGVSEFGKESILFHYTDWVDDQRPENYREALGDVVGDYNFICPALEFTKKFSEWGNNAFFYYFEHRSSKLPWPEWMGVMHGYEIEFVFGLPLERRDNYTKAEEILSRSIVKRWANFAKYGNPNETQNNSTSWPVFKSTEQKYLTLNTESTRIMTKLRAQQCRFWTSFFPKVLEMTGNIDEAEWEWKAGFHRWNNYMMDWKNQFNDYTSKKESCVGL
How it was run: as §1

[2] = molecular target: T5, human butyrylcholinesterase (BChE) (Homo sapiens, UniProt P06276); experiment: Enzyme kinetics of BChE inhibition (Lineweaver-Burk plots); type: biochemical
T5 construct: purchased Sigma-Aldrich (Steinheim, Germany)
T5 sequence (P06276 29-602): as above
Text: To recognize the inhibition type, enzyme kinetics studies were applied using Lineweaver–Burk plots. […]. […] This pattern also indicates a mixed-type inhibition.
The calculation of the inhibition constant (Ki) is an effective tool for measuring the affinity of an enzyme for […], and it is easily determined using the secondary plots of the Lineweaver–Burk equation. […].
In the kinetics studies, the assay protocol specified for the inhibition assay was identical. […]. Measurements were performed one of two ways, in the presence and in the absence of the inhibitor. […]. After addition of BChE (20 μL/well), the mixture was incubated under the same conditions as the activity assay. Then, the reaction was initiated by the addition of Ellman’s reagent (DTNB; 20 µL/well, 10 mM) and the substrate (10 µL/well, 75 mM). The absorbance was measured for 10 min at 412 nm. The enzyme solution was processed as a control. All readings were adjusted with blank-reading. The results were analyzed as Lineweaver–Burk plots using Microsoft Office Excel 2013 [15].

MTT cell viability assay = type: cell-based, murine; conditions: mouse, NIH3T3 murine embryonic fibroblast cells, 0.000316 µM to 1000 µM, read-out: IC50 against NIH3T3
Protocol: The active compounds (4a, 4b, 4e, 4i, 4m, 4n, 4o, and 4t) were chosen to determine their cytotoxic activity toward a murine fibroblast healthy cell line (NIH3T3). After incubating the cells with active compounds at concentrations of 0.000316 µM to1000 µM for 24 h, the cell viability was measured using the 3-(4,5-dimethylthiazol-2-yl)-2,5-diphenyltetrazolium (MTT) assay. The inhibition percentage was calculated for each concentration of the test compounds. The IC50 values of the compounds were determined using a non-linear regression analysis over the calculated percentage inhibition values, and they are presented in Table 2. Accordingly, the cytotoxicity test proposed that the active derivatives were nontoxic against NIH3T3 cells at their active concentrations against BChE.
Healthy murine embryonic fibroblast cells (NIH3T3 cell line) were used for the cytotoxicity tests. The cell line and selected compounds were prepared for an MTT assay as reported previously. The optical densities (OD) of 96 well plates were recorded at 540 nm. […]

[3] = read-out: AChE (Electrophorus electricus) inhibitory activity (%) ± SD
[4] = read-out: AChE (Human) inhibitory activity (%) ± SD
[5] = read-out: BChE (Human) inhibitory activity (%) ± SD

T1 sequence (O42275 24-633): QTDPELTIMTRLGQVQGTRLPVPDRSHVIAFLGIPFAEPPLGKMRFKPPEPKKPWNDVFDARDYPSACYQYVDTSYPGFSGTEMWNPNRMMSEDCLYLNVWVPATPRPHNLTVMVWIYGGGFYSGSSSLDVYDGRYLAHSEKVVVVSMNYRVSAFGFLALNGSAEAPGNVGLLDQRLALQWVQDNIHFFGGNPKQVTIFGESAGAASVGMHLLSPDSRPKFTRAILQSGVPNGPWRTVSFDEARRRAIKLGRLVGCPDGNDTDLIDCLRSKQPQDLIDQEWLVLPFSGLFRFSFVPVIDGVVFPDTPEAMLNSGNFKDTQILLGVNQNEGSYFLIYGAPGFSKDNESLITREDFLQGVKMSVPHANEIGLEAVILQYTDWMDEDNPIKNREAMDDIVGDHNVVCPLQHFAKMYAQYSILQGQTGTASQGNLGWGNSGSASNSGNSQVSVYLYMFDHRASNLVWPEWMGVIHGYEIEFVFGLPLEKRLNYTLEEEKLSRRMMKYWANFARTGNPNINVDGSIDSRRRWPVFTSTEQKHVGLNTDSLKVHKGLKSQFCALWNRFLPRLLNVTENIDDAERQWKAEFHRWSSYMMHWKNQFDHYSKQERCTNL

Question: Which results are given for `O=C(CSC(=S)N1CCN(Cc2ccc(C(F)(F)F)cc2)CC1)Nc1c2ccccc2nc2ccccc12` [Compound 4n, 2-(9-Acridinylamino)-2-oxoethyl 4-(4-(trifluoromethyl)benzyl)piperazine-1-carbodithioate]?
Answer: IC50 [1]: 45.9 ± 1.58 µM; inhibition at 0.001 µM [1, 3]: 6.91 ± 0.27%; inhibition at 0.01 µM [1, 3]: 8.43 ± 0.38%; inhibition at 0.1 µM [1, 3]: 11.3 ± 0.61%; inhibition at 1 µM [1, 3]: 14.6 ± 0.76%; inhibition at 10 µM [1, 3]: 22.4 ± 0.8%; inhibition at 100 µM [1, 3]: 63.2%; inhibition at 1000 µM [1, 3]: 81 ± 2.65%; IC50 (AChE (Human)): 41.1 ± 1.69 µM; inhibition at 0.001 µM (AChE (Human); [4]): 3 ± 0.12%; inhibition at 0.01 µM (AChE (Human); [4]): 5.51 ± 0.17%; inhibition at 0.1 µM (AChE (Human); [4]): 9.18 ± 0.22%; inhibition at 1 µM (AChE (Human); [4]): 10.5 ± 0.37%; inhibition at 10 µM (AChE (Human); [4]): 18.5 ± 0.54%; inhibition at 100 µM (AChE (Human); [4]): 68.4%; inhibition at 1000 µM (AChE (Human); [4]): 83.3 ± 1.78%; IC50 (BChE (Equine)): 0.015 ± 0.0006 µM; inhibition at 1000 µM (BChE (Equine); 10^-3 M, read-out: BChE (Equine) inhibitory activity (%) ± SD): 99.5 ± 2.97%; inhibition at 100 µM (BChE (Equine); 10^-4 M, read-out: BChE (Equine) inhibitory activity (%) ± SD): 99%; inhibition at 10 µM (BChE (Equine); 10^-5 M, read-out: BChE (Equine) inhibitory activity (%) ± SD): 92.5 ± 2.86%; inhibition at 1 µM (BChE (Equine); 10^-6 M, read-out: BChE (Equine) inhibitory activity (%) ± SD): 81.3 ± 1.25%; inhibition at 0.1 µM (BChE (Equine); 10^-7 M, read-out: BChE (Equine) inhibitory activity (%) ± SD): 49.3 ± 0.58%; inhibition at 0.01 µM (BChE (Equine); 10^-8 M, read-out: BChE (Equine) inhibitory activity (%) ± SD): 43.7 ± 1.11%; inhibition at 0.001 µM (BChE (Equine); 10^-9 M, read-out: BChE (Equine) inhibitory activity (%) ± SD): 39.25 ± 0.22%; IC50 (BChE (Human)): 0.014 ± 0.0005 µM; inhibition at 0.001 µM (BChE (Human); [5]): 37.2 ± 0.69%; inhibition at 0.01 µM (BChE (Human); [5]): 43.6 ± 0.84%; inhibition at 0.1 µM (BChE (Human); [5]): 50.5 ± 0.69%; inhibition at 1 µM (BChE (Human); [5]): 83.2 ± 1.07%; inhibition at 10 µM (BChE (Human); [5]): 93.7 ± 2.45%; inhibition at 100 µM (BChE (Human); [5]): 98.2%; inhibition at 1000 µM (BChE (Human); [5]): 99.3 ± 2.1%; inhibition type of BChE ([2]; Lineweaver-Burk plot, inhibitor at IC50/2, IC50, 2 x IC50): mixed inhibition; Ki ([2]; secondary plot of Lineweaver-Burk, substrate BTCI, read-out: steady-state inhibition constant (Ki) against BChE): 0.0175 µM; IC50 at 24 h (MTT cell viability assay): > 1000 µM
